Data as given in patent publication US4368194A, “Pharmacologically active amine boranes” (The United States of America as represented by the …, priority 1981, dated 1983).
Where two headings read alike, the source gives them in different places.

What was measured:
[1] = test system: carrageenan induced edema in mouse foot pads; assay: Anti-inflammatory screen (carrageenan induced foot edema); format: in vivo, mice; settings: for Anti-inflammatory Screen: mice
Experimental: CF1 male mice (about 30 g) were administered test drugs at 10 mg/kg in 0.05% polysorbate .80-water intraperitoneally 3 hr and 30 min prior to 0.05 ml of 2% carrageenan in 0.9% saline injected into the plantar surface of the right hind foot. Saline injected into the left hind foot served as a base line. After 3 hr, both feet were excised at the tibiotarsal (ankle) joint according to the modified (Roszkowski et al., J. Pharm. Exp. Ther., 179, 114 1971) method of Winter, resulting in an 87 mg net increase in the weight of the control animals' feet.

[2] = test system: Acid phosphatase; assay: Lysosomal free acid phosphatase activity, liver homogenate; format: biochemical, rats; settings: 5 μmoles, in vitro; 20 min
Experimental: (§1) Lysosomal enzymatic assays - Sprague Dawley rats (about 160 g) were sacrificed, the liver excised, and a 10% homogenate (4x) in 0.25 M sucrose and 0.001 M (ethylenedinitrilo) tetra acetic acid, ph 7.2 was prepared.
(§2) Acid phosphatase activity (Gianetto et al., Biochem J., 59, 433 1955) was carried out by incubating with 0.1 Mβ-glycerol phosphate in 0.1 M acetate, pH 5.0 with 5 μmoles of test drugs in 1% carboxymethylcellulose (CMC) for 20 min with liver homogenate and 60 min with resuspended PMNs. Lysosome enzymes were released by 0.02% alkyl phenoxy polyethoxy ethanol-100 to obtain the total enzymatic activity. The reaction was stopped with 10% trichloroacetic acid and the solution centrifuged. Aliquots of the supernatant were assayed for inorganic phophate content by the method of Chen et al., Anal Chem., 28, 1756 (1956). Percent free acid phosphatase was calculated. Cathepsin activity was determined in an analagous manner except the substrate used was 2% azocasein (Schleuning et al., Methods in Enzymology, XLV, 330 1976) in 0.1 M acetate buffer pH 5.0. The supernatant was assayed for acid soluble peptide fragments at 366 nm. Percent free cathepsin activity was calculated.

[3] = test system: Cathepsin; assay: Lysosomal free cathepsin activity, liver homogenate; format: biochemical, rats; settings: 5 μmoles; for Liver % Free Cathepsin Activity, pH5: in vitro, 20 min
Experimental: as §1, §2

[4] = test system: Acid phosphatase; assay: Lysosomal free acid phosphatase activity, PMNs; format: cell-based; settings: 5 μmoles; for PMNs % Free Acid Phosphatase Activity, pH5: in vitro, 60 min
Experimental: (§3) Polymorphonuclear neutrophils (PMNs) were collected from the peritoneal cavity four hr after the injection of 35 ml of 0.5% oyster glycogen in isotonic saline (Orange et al., J. Exp. Med., 127, 767 1968). The PMNs were centrifuged down at 800 g for 20 min, washed, and resuspended in minumen essential medium (MEM) with 10% fetal calf serum pH 7.4.
as §2

[5] = test system: Cathepsin; assay: Lysosomal free cathepsin activity, PMNs; format: cell-based; settings: 5 μmoles; for PMNs % Free Cathespin Activity, pH5: in vitro, 60 min
Experimental: as §3, §2

[6] = test system: cAMP levels in PMNs; assay: Cyclic-3',5'-adenosine monophosphate levels (cAMP) in PMNs; format: cell-based; settings: 1 h
Experimental: as §3
Isolated PMNs were incubated with test drugs at 5μ moles for 1 hr at 37° C. in MEM at pH 7.4. The reaction was stopped with 6% trichloroacetic acid. The cyclic-3',5'-adenosine monophosphate levels were determined by the radioimmunoassay of Gilman, Proc. Natl. Acad. Sci. (USA), 67, 305 (1970), using 3H(G)-cyclic-3',5'-adenosine monophosphate (39.8 Cu/m mol). Results were calculated in p mole/10^7 PMNs cells.

[7] = target: T1, prostaglandin synthetase from beef seminal vesicle (Bos taurus, UniProt O62664); assay: Prostaglandin synthetase activity; format: biochemical; settings: 10^-6 M; for activity at 1 µM: 1 h, read-out: Prostaglandin Synthesis
T1 construct: purchased; host or cells: beef seminal vesicle
T1 sequence (O62664 25-600): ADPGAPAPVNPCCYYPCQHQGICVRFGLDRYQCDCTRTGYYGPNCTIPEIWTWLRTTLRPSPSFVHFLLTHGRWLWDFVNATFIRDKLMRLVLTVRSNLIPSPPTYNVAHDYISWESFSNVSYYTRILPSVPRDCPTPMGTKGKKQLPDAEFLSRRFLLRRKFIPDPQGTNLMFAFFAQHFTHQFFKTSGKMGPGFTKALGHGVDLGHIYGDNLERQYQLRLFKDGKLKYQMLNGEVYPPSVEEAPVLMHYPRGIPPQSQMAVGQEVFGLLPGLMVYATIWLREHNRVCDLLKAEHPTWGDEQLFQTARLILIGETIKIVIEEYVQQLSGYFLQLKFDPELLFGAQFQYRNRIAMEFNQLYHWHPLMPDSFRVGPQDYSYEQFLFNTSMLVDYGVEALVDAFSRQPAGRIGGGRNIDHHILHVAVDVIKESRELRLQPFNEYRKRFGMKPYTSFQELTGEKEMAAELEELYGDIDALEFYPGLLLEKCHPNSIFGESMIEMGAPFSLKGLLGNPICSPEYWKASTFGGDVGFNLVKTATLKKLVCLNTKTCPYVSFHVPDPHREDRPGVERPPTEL
Experimental: After 1 hr at 37° C. the reaction was stopped with 1 N HCl and extracted with ethyl ether and evaporated. […] The plates were dried and developed in iodine vapor and with the use of prostaglandin standards the appropriate areas were scraped and counted for ^3 H content. Indometacin was used as a standard at 10^-4 M concentration. Test drugs were used at 10^-6 M.

[8] = test system: liver mitochondria; assay: Oxidative phosphorylation, succinate as substrate; format: biochemical, rats; settings: 5 μmoles; for Oxidative Phosphorylation Succinate State 3: ADP stimulated respiration; for Oxidative Phosphorylation Succinate State 4: basal respiration
Experimental: (§4) Basal and adenosine diphosphate stimulated respiration on 10% liver homogenates was measured using succinate or αketoglutarate as substrate. See Glatt, et al., supra. The reaction vessel contained sucrose 55μ moles, KCl 22μ moles, K2 HPO4 22μ moles, test compounds at 5μ moles in 1% CMC and sodium succinate 90μ moles or αketoglutarate 60μ moles in a total volume of 1.8 ml. […] The rate of respiration was calculated at μl of O2 consumed/hr/mg wet weight of liver.

[9] = test system: liver mitochondria; assay: Oxidative phosphorylation, α-ketoglutarate as substrate; format: biochemical, rats; settings: 5 μmoles; for Oxidative Phosphorylation α Ketoglutarate State 3: ADP stimulated respiration; for Oxidative Phosphorylation α Ketoglutarate State 4: basal respiration
Experimental: as §4

[10] = in vivo; settings: mouse
[11] = test system: CF1 male mice; assay: Writhing reflex (acetic acid); format: in vivo; settings: for Writhing Reflex: 20 mg/kg intraperitoneally, mice
Experimental: CF1 male mice were administered test drugs at 20 mg/kg intraperitoneally 20 min (see Hendershat et al., J. Pharmacol Exp. Ther. 125, 237 1959) prior to the administration of 0.5 ml of 0.6% acetic acid (Vingar et al., European J. PHarmacol, 37, 23 1976). After 5 min the number of stretches, characterized by repeated contractures of the abdominal musculature accompanied by extension of the hind limbs, was counted for the next 10 min. The control mice had 78 stretch reflexes per 10 min.

[12] = pH 7.4, 5 μmoles, in vitro, read-out: PMNs cAMP Level

Compound	Anti-inflammatory Screen ([1]; 10 mg/kg × 2 intraperitoneally) [% Control]	Liver % Free Acid Phosphatase Activity, pH5 [2] [% Control]	Liver % Free Cathepsin Activity, pH5 [3] [% Control]	PMNs % Free Acid Phosphatase Activity, pH5 [4] [% Control]	PMNs % Free Cathespin Activity, pH5 [5] [% Control]	activity at 5 µmol [6, 12] [%]	activity at 1 µM [7] [%]	Oxidative Phosphorylation Succinate State 3 [8] [% Control]	Oxidative Phosphorylation Succinate State 4 [8] [% Control]	uncoupling with α-ketoglutarate as substrate [9]	Oxidative Phosphorylation α Ketoglutarate State 3 [9] [% Control]	Oxidative Phosphorylation α Ketoglutarate State 4 [9] [% Control]	LD50 [10] [mg/kg]	Writhing Reflex [11] [% Control]	other results
[BH3-][NH2+]C(C)(C)C [Compound I, (CH3)3 CNH2.BH3]	41	77 ± 4	58 ± 5	100 ± 9	100 ± 4	58	100 ± 3	63 ± 8	118 ± 11	uncoupling	63 ± 14	160 ± 35	16	–	inhibition of the carrageenan induced edema in mouse foot pads ([1]; text summary of Table II): at least 50%
[BH3-][N+](C)(C)C [Compound III, (CH3)3 N.BH3]	65	72 ± 6	17 ± 4	57 ± 4	18 ± 3	145	61 ± 3	56 ± 12	117 ± 11	–	28 ± 10	71 ± 8	740	47	inhibition of free proteolytic cathepsin activity of liver [3]: at least 75%; inhibition of free acid phosphatase activity in PMNs [4]: 43%; inhibition of PMN cathepsin activity [5]: at least 82%; activation at 5 µmol ([6]; in vitro incubation, 5 μmoles, read-out: increase of cyclic adenosine monophosphate levels in PMNs): 45%; inhibition at 1 µM ([7]; read-out: inhibition of prostaglandin synthesis): > 30%; both states 3 and 4 respiration with α-ketoglutarate [9]: inhibited
[BH3-][NH+](C)C [IV, (CH3)2 NH.BH3]	66	82 ± 3	67 ± 3	82 ± 6	65 ± 5	80	100 ± 5	82 ± 4	119 ± 9	–	53 ± 16	67 ± 18	200	37	both states 3 and 4 respiration with α-ketoglutarate [9]: inhibited
CCNC(=O)[BH2-][N+](C)(C)C [VII, (CH3)3 N.BH2 CON(H)CH2 CH3]	63	78 ± 7	–	100 ± 2	22 ± 5	98	100 ± 7	74 ± 9	114 ± 13	uncoupling	45 ± 18	113 ± 37	320	29	inhibition of the writhing reflex ([11]; text summary of Table II): 70%
CCNC(=O)[BH2-][N+](C)(C)CC[N+](C)(C)[BH2-]C(=O)NCC [XIII, N,N,N^1,N^1 -Tetramethylethylenediamine-bis(N-ethylamidoborane)]	65	74 ± 4	–	100 ± 7	70 ± 6	92	100 ± 4	66 ± 8	117 ± 8	uncoupling	50 ± 24	162 ± 43	> 1000	55	–
O=C(O)[BH2-][n+]1ccccc1 [XVI, Pyridine-carboxyborane]	–	77 ± 8	58 ± 4	100 ± 5	31 ± 4	–	76 ± 5	75 ± 15	110 ± 13	–	63 ± 15	109 ± 30	–	53	Anti-inflammatory Screen ([1]; 1/3 dose (of 10 mg/kg × 2)): 74 % Control; activity at 5 µmol ([6]; pH 7.4, read-out: PMNs cAMP Level): 100%
CCOC(=O)[BH2-][N+](C)(C)C [XVIII, (CH3)3 N.BH2 COOCH2 CH3]	87	–	–	–	16 ± 3	–	–	61 ± 19	119 ± 18	–	54 ± 8	126 ± 51	> 500	106	inhibition of PMN cathepsin activity [5]: at least 82%
